In patent publication US8440837B2, “2-substituted-ethynylthiazole derivatives and uses of same” (H. Lundbeck A/S, priority 2009, dated 2013):

Target: human metabotropic glutamate receptor 5 (hmGluR5) (UniProt P31424)
Assay: Calcium mobilization (FLIPR) assay, positive allosteric modulation of the EC20 glutamate response
Type: cell-based
Settings: HEK 293 cells; for maximum modulation (Emax): EC20 glutamate response; for EC50: increase in EC20 glutamate response
Method: The cDNA for human metabotropic glutamate receptor 5 (hmGluR5) was a generous gift from S. Nakanishi (Kyoto University, Kyoto, Japan). The […] was stably expressed in a HEK 293 cell line and grown in Dulbecco's Modified Eagle Medium (DMEM) (Invitrogen, Carlsbad, Calif.) with supplements (10% bovine calf serum, 4 mM glutamine, 100 units/mL penicillin, 100 μg/mL streptomycin and […]) at 37° C., 5% CO2. Twenty-four hours prior to assay, cells were seeded into 384-well black wall microtiter plates coated with poly-D-lysine. Just prior to assay, media was aspirated and cells dye-loaded (25 μL/well) with 3 μM Fluo-4/0.01% pluronic acid in assay buffer (Hank's Balanced Saline Solution (HBSS)): 150 mM NaCl, 5 mM KCl, 1 mM CaCl2, 1 mM MgCl2, plus 20 mM N-2-Hydroxyethylpiperazine-N′-2-ethanesulfonic acid (HEPES), pH 7.4, 0.1% bovine serum albumin (BSA) and 2.5 mM probenicid) for 1 hour in 5% CO2 at 37° C. After excess dye was discarded, cells were washed in assay buffer and layered with a final volume equal to 30 μL/well. Basal fluorescence is monitored in a fluorometric imaging plate reader (FLIPR) (Molecular Devices, Sunnyvale, Calif.) with an excitation wavelength of 488 nm and an emission range of 500 to 560 nm. Laser excitation energy was adjusted so that basal fluorescence readings were approximately 10,000 relative fluorescent units. Cells were stimulated with an EC20 or an EC80 concentration of glutamate in the presence of a compound to be tested, both diluted in assay buffer, and relative fluorescent units were measured at defined intervals (exposure=0.6 sec) over a 3 min period at room temperature. Basal readings derived from negative controls were subtracted from all samples. Maximum change in fluorescence was calculated for each well. Concentration-response curves derived from the maximum change in fluorescence were analyzed by nonlinear regression (Hill equation).
A silent allosteric modulator (SAM) can be identified by using a combination of both the calcium mobilization assay data and the radioligand binding data. As used herein, the term “silent allosteric modulator” refers to a ligand that binds to an allosteric site of the receptor but has no measurable intrinsic efficacy.

| SMILES | maximum modulation (Emax) [%] | EC50 [nM] |
| --- | --- | --- |
| CC1CCN(C(=O)c2cnc(C#Cc3cccc(F)c3)s2)CC1 [Example 20] | 110 | 0.71 |
| Cc1cccc(C#Cc2ncc(C(=O)N3CCC(O)CC3)s2)c1 [Example 25, (4-Hydroxy-piperidin-1-yl)-(2-m-tolylethynyl-thiazol-5-yl)-methanone] | 50 | 55 |
| O=C(c1cnc(C#Cc2ccc(F)cc2)s1)N1CCC(O)CC1 [Example 29, [2-(4-Fluoro-phenylethynyl)-thiazol-5-yl]-(4-hydroxy-piperidin-1-yl)-methanone] | 100 | 2400 |
| O=C(c1cnc(C#Cc2ccc(F)cc2)s1)N1CCCCC1 [Example 30, [2-(4-Fluoro-phenylethynyl)-thiazol-5-yl]-piperidin-1-yl-methanone] | 110 | 29 |
| O=C(c1cnc(C#Cc2cccc(Cl)c2)s1)N1CCC(O)CC1 [Example 38, [2-(3-Chloro-phenylethynyl)-thiazol-5-yl]-(4-hydroxy-piperidin-1-yl)-methanone] | 42 | 12 |
| CN1CCN(C(=O)c2cnc(C#Cc3ccccc3)s2)CC1 [Example 42, (4-Methyl-piperazin-1-yl)-(2-phenylethynyl-thiazol-5-yl)-methanone] | 160 | 530 |
| O=C(c1cnc(C#Cc2ccccc2)s1)N1CCCCCC1 [Example 58, Azepan-1-yl-(2-phenylethynyl-thiazol-5-yl)-methanone] | 79 | 5.2 |
| O=C(c1cnc(C#Cc2ccccc2Cl)s1)N1CCCCC1 [Example 68, [2-(2-Chloro-phenylethynyl)-thiazol-5-yl]-piperidin-1-yl-methanone] | 100 | 440 |
| O=C(c1cnc(C#Cc2ccccc2)s1)N1CCc2[nH]ncc2C1 [Example 77, (2-Phenylethynyl-thiazol-5-yl)-(1,4,6,7-tetrahydro-pyrazolo[4,3-c]pyridin-5-yl)-methanone] | 120 | 100 |
| O=C(c1cnc(C#Cc2ccccc2)s1)N1CCC2(CCCO2)CC1 [Example 78] | 120 | 200 |
| CC1(O)CCN(C(=O)c2cnc(C#Cc3ccccc3)s2)CC1 [Example 80, (4-Hydroxy-4-methyl-piperidin-1-yl)-(2-phenylethynyl-thiazol-5-yl)-methanone] | 120 | 290 |
| O=C(c1cnc(C#Cc2ccccc2)s1)N1CCC(C(F)(F)F)CC1 [Example 111, (2-Phenylethynyl-thiazol-5-yl)-(4-trifluoromethyl-piperidin-1-yl)-methanone] | 130 | 64 |

More lines, now with the values ahead:

| maximum modulation (Emax) [%] | EC50 [nM] | SMILES |
| --- | --- | --- |
| 91 | 23 | Cc1nc(C#Cc2ccccc2)sc1C(=O)N1CCC(C)CC1 [Example 14, (4-Methyl-2-phenylethynyl-thiazol-5-yl)-(4-methyl-piperidin-1-yl)-methanone] |
| 52 | 360 | O=C(c1cnc(C#Cc2ccccc2)s1)N1CCN(c2ccccc2)CC1 [Example 41, (2-Phenylethynyl-thiazol-5-yl)-(4-phenyl-piperazin-1-yl)-methanone] |
| 140 | 20 | CC1CCN(C(=O)c2cnc(C#Cc3ccccc3F)s2)CC1 [Example 63, [2-(2-Fluoro-phenylethynyl)-thiazol-5-yl]-(4-methyl-piperidin-1-yl)-methanone] |
| 150 | 4.3 | O=C(c1cnc(C#Cc2ccccc2)s1)N1CCC(F)(F)CC1 [Example 82, (4,4-Difluoro-piperidin-1-yl)-(2-phenylethynyl-thiazol-5-yl)-methanone] |
| 46 | 140 | COC1CCCN(C(=O)c2cnc(C#Cc3ccccc3)s2)C1 (stereo not shown) [Example 119, (3-Methoxy-piperidin-1-yl)-(2-phenylethynyl-thiazol-5-yl)-methanone] |
